Source: paper PMC9028786, “The Ribosome Is the Ultimate Receptor for Trypsin Modulating Oostatic Factor (TMOF)” (Biomolecules, 2022)
Ends that are not written are not given here.

Experiments:
E. coli ribosome = experiment: Binding of AeaTMOF-FITC to purified E. coli ribosomes; set-up: species or system Escherichia coli
Description: The purification of E. coli ribosomes is a modification of earlier published methods. Briefly, E. coli (BL21) cells were grown in LB medium for 24 h to OD600 of 1.1, and the cells were centrifuged at 5000 rpm at 6 °C for 5 min. The supernatant was discarded and the pellet was washed with 40 mM HEPES-KOH pH7.4, 100 mM NaCl, and 2 mM Mg(OAc)2 buffer. The suspension was centrifuged at 6000 rpm for 5 min, the supernatant discarded, and the pellet was frozen at −80 °C and stored overnight. The frozen pellet was taken up in 10 mL of sonication buffer of 20 mM HEPES-KOH pH 7.5, 100 NH4OAc, 6 mM βME, 0.5 mM Na-EDTA, and 0.5% Tween 20 containing 100 units of RNase inhibitor, and the solution was sonicated at 40% power for 10 s, 50% power for 10 s, and 60% power for 20 s. During the sonication, the tube was immersed in an ice bath. The lysed cell solution (25 mL) in sonication buffer was centrifuged at 30,000 g in a Beckman ultracentrifuge using a 70Ti centrifuge rotor for 30 min at 4 °C. After centrifugation, the supernatant was collected, and the pellet discarded. […] The amount of the protein in the ribosome preparation and the ribosomal RNA was determined (2.28 mg/mL protein and 3.932 mg/mL ribosomal RNA). […]
Purified E. coli ribosomes (1 μL, 9.4 μg) in tight association buffer (20 mM HEPES-KOH pH 7.6, 6 mM Mg(OAc)2, 30 mM NH4OAc, and 6 mM βME) were incubated in Eppendorf tubes containing 100 μL of tight association buffer and 5 μL of AeaTMOF-FITC (0–0.2 μM) (Specific activity 8333 Fluorescence Units/pmol) for 60 min at 30 °C with gentle shaking. […] The washing by centrifugation with 5% TCA was repeated 3 times, and after the final centrifugation, the pellets were dissolved in 100 μL of PBS containing 0.4N NaOH, and the fluorescence of the dissolved pellets was read in a GloMax multidetector system using a blue filter (Excitation at 490 nm and Emission at 510–570 nm). All data were corrected for nonspecific fluorescence when incubations were run without AeaTMOF-FITC or with AeaTMOF-FITC and without ribosomes. […]

[1] = test system: trypsin mRNA in the gut epithelial cells; conditions: gut epithelial cells of Ae. aegypti and Neobellieria bullata; cited from earlier work
Excerpt: Several of these ABC transporters with 80–100% similarity with the AeaTMOF receptor are also found in several Aedes, Anopheles, and ...

bacterial 70 S ribosome = experiment: Inhibition of luciferase translation in E. coli S30 extract; type: biochemical, Escherichia coli
Description: To test the effect of AeaTMOF and Oncocin112 (1–13) on the translation of Luciferase by the bacterial 70 S ribosome, an E. coli S30 lysate extract system for circular DNA (Promega) containing a plasmid pBestluc DNA vector (4486 bp) (1 mg/mL) 0.3 μL, amino acid mixture without methionine (1 mM) 1.25 μL, amino acid mixture without Leucine (1 mM) 1.25 μL, S30 premix (including ribosomes) without amino acids 5 μL, S30 extract circular 3.5 μL, RNasin (8 U, 112 ng) 0.2 μL, different concentrations of AeaTMOF or Oncocin112 (1–13) (0.001 μM to 1000 μM), and nuclease-free water to a volume of 12.5 μL were incubated for 2 h at 37 °C. […] After incubation, 87.5 μL of GLO lysis buffer (Promega) containing beetle luciferin was added, mixed, and aliquots (5 μL) were removed, and their luminescence read in a GLOMAX multidetector system. […] The decrease in luminescence (% ± SEM) in the presence of increasing log AeaTMOF or Oncocin112 (1–13) concentrations was then plotted using GrapPad Prism 3.

[2] = test system: E. coli mutant cells CGSC strain 8547 SbmA^- expressing only ABC-tmfA importer; experiment: Growth/viability of E. coli mutant CGSC strain 8547 SbmA^- expressing ABC-tmfA importer; type: cell-based, Escherichia coli
Description: E. coli CGSC strain […] lacking the SbmA importer expressing the ABCtmfA receptor/importer was prepared using plasmid pTAC-MAT-2 ABCtmfA importer/receptor as described earlier. [3,4,5 ^3H]Leucine 250 μCi, Spc Act 100–150 Ci/mmol was purchased from Perkin Elmer (Waltham, MA, USA). AeaTMOF-FITC (H-YDPAPPPPPPK(FITC)K-OH) was synthesized at the University of Colorado Anschutz School of Medicine protein core. AeaTMOF-FITC was purified by HPLC showing a single peak, and mass spectrometry analysis of the peak identified the 3 expected ions at 455.7, 607.3, and 910.3, showing an expected Mr 1019.56 as was described earlier. Synthetic AeaTMOF (H-YDPAPPPPPP-OH) and a short Oncocin112(1–13) (H-VDKPPYLPRPRPP-OH), a 13 amino acids oncocin112 peptide, 6 amino acids shorter than the original oncocin112 of 19 amino acids, were synthesized and purified by HPLC [16]. After HPLC purifications of AeaTMOF, oncocin112 (1–13), and AeaTMOF-FITC, the TFA ions were exchanged with phosphate ions.
(§1) We aimed to find out if AeaTMOF can also stop bacterial growth as, was shown for the proline-rich Oncocin112 that binds to the bacterial ribosome, stopping protein translation, bacterial growth, and causing bacterial death. E. coli CGSC strain7636 (2.7 × 10^4 cells) SbmA^+, expressing the proline-rich peptides importer SbmA, were incubated in 96-well plate containing 100 μL/well of LB medium, 0.4 mM of IPTG, 0.1 mM of ampicillin, and different concentrations of AeaTMOF and Oncocin112 (1–13) (3 mM and 10 mM) in different wells. The 96-well plate was incubated at 37 °C for 18 h and bacterial growth was followed at 630 nm using Biotech ElX808 absorbance microplate reader. Control wells contained bacterial cells growing without AeaTMOF or oncocin112 (1–13). […] After the incubations in the presence of Oncocin112 (1–13) or AeaTMOF of 10 mM and 3 mM, aliquots (0.5 μL) were removed from each well and spread on LB agar plates containing 0.1 mM of ampicillin, and the plates were incubated overnight at 37 °C and viable colonies were counted. Incubations were done in triplicates and the experiments were repeated twice. Results are expressed as means of three determinations ± SEM.

luciferase = experiment: Effect on activity of pre-synthesized luciferase; type: biochemical, Beetle; conditions: results not shown
Description: Incubations of E. coli S30 extract synthesizing Beetle luciferase in the presence of an increasing concentration of AeaTMOF (0.001 to 750 μM) stopped the biosynthesis of luciferase, diminishing its activity on Beetle luciferin as measured in luminescence units. The activity of the in vitro synthesized luciferase on Beetle luciferin at very low concentration of AeaTMOF (0.001 μM) was similar to luciferase activity without AeaTMOF, and this luminescence was used to calculate the decrease in luminescence (%) after incubation with increasing concentrations of AeaTMOF (Figure 1A). Higher concentrations of AeaTMOF (higher than 0.001 μM) caused a linear decrease in the synthesis of luciferase and a decline in luminescence (%) reaching IC50 (inhibition concentration of 50%) at 1 μM (Figure 1A). […] AeaTMOF is not an inhibitor of luciferase.

[3] = test system: E. coli CGSC strain7636 cells expressing SbmA^+; experiment: Growth/viability of E. coli CGSC strain7636 expressing SbmA; type: cell-based, Escherichia coli; conditions: 3 and 10 mM peptide, 37 °C, 18 h, p < 0.05 vs control
Description: as §1

## H-YDPAPPPPPPK(FITC)K-OH [AeaTMOF-FITC, H-[…](FITC)K-OH, FITC-labelled AeaTMOF]
E. coli ribosome; calculated from specific binding KD
  Kassoc, affinity constant: 4.3e+07 M⁻¹
E. coli ribosome; purified E. coli (BL21) ribosomes 9.4 μg, AeaTMOF-FITC 0–0.2 μM, tight association buffer pH 7.6, 60 min at 30 °C, TCA precipitation, fluorescence, nonspecific binding subtracted, nonlinear regression, ± SEM, n = 6
  Kd: 0.023 ± 0.0034 µM
E. coli ribosome; purified E. coli ribosomes, AeaTMOF-FITC 0–0.2 μM, pH 7.6, 60 min at 30 °C, fluorescence, nonlinear regression, ± SEM, n = 6
  Bmax, ribosome binding: 0.553 ± 0.023 pmol/μg ribosome

## NPTNLH [NebTMOF, NPTNLH, trypsin modulating oostatic factor of Neobellieria bullata, reference compound]
[1]
  Effect on translation of trypsin mRNA: stop the translation of trypsin mRNA

## VDKPPYLPRPRPP [Oncocin112 (1–13), reference compound]
Bacterial 70 S ribosome; AeaTMOF at 0.001 μM, Oncocin112 (1–13) at 0.01 μM, 2 h at 37 °C
  Inhibition of luciferase biosynthesis at lowest concentration: do not inhibit the biosynthesis of luciferase
Bacterial 70 S ribosome; E. coli S30 lysate, pBestluc DNA, 2 h at 37 °C, peptide 0.001 to 750 μM, luminescence read-out, mean of three determinations, read-out: IC50, inhibition of luciferase biosynthesis (luminescence)
  IC50: 2 µM
Bacterial 70 S ribosome; IC50 2 μM versus AeaTMOF
  IC50 increase compared with AeaTMOF: twofold increase
[2]; SbmA^- cells expressing ABC-tmfA importer, 3 and 10 mM peptide, 37 °C, 18 h, 630 nm, p < 0.05 for inhibition
  E. coli growth: grew at the same rate
[2]; cells that only expressed ABCtmfA receptor/importer, up to 10 mM
  E. coli cell growth (discussion): did not affect the cell growth, even at high concentrations of 10 mM
[2]; inferred from growth of SbmA^+ and SbmA^- ABC-tmfA E. coli, 3 and 10 mM
  Importer used: can only use the bacterial natural importer SbmA
luciferase
  Effect on Beetle luciferase biosynthesis versus activity: inhibits Beetle luciferase biosynthesis and not its activity
[3]; 630 nm
  E. coli growth: significantly inhibited the growth of the E. coli cells
[3]; initial 2.7 × 10^4 cells, LB medium, plated on LB agar, triplicates
  Viable colonies at end of incubation: 4–10 colonies
